Assay [1] addresses T1, Adenosine receptor A2a (Homo sapiens, UniProt P29274). The assay is described as follows: Displacement of [3H]ZM-241385 from recombinant human adenosine A2A receptor expressed in HeLa cells at 0.1 uM.
The target in assay [2] is T1, Adenosine receptor A2a.
Description: Binding affinity to recombinant human adenosine A2A receptor
Assay [3] addresses T2, Adenosine receptor A2b (Homo sapiens) (UniProt P29275).
T2 sequence (whole entry): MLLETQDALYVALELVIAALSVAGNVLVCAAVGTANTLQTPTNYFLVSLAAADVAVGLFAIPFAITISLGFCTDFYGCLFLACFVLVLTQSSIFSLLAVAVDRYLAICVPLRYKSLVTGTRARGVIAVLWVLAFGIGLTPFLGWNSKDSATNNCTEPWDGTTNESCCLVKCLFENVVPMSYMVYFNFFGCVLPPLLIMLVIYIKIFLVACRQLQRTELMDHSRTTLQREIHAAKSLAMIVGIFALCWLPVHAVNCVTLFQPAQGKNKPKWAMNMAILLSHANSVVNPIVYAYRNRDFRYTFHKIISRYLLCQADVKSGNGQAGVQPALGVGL
The assay can be described thus: Displacement of [3H]DPCPX from recombinant human adenosine A2B receptor expressed in HEK293 cells at 0.01 uM. A general note: Loss of bound radioactivity is the signal in a displacement assay; it reports binding, not function.

Assay [4] concerns the target T2, Adenosine receptor A2b (Homo sapiens). The assay can be described thus: Displacement of [3H]DPCPX from recombinant human adenosine A2B receptor expressed in HEK293 cells at 0.1 uM. It is filed as cell-based.
The next assay has as its target T3, Adenosine receptor A2b (Homo sapiens, UniProt P29275).
T3 sequence (P29275 whole entry): T2 sequence (whole entry)

T1 sequence (P29274 whole entry): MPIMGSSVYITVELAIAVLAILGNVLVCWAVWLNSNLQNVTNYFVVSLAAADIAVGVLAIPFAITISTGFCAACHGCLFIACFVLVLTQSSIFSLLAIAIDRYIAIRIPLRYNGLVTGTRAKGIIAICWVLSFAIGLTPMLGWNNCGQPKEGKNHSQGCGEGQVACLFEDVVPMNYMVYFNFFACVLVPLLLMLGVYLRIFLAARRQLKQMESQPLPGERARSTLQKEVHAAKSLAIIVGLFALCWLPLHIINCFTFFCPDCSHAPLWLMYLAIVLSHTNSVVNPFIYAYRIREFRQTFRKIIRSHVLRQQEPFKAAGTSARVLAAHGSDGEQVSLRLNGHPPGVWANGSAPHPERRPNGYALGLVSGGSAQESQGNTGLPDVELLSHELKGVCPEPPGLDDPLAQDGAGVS

By inhibition is commonly meant the relative decrease from the control value, in per cent. The Ki is a dissociation constant, usually derived from enzyme kinetics or from competition with a known ligand. The low end stands for a stronger hold on the target, the high end for a looser hold on the target. On to `Cn1c(=O)c2[nH]c(-c3ccc(OCC(=O)NCc4ccccc4)cc3)cc2n(C)c1=O`, for which the inhibition came to 25% at Adenosine receptor A2a [1], 12% in assay [3] and 66% in assay [4]. In addition, the figures for the Ki on Adenosine receptor A2a [2] and at Adenosine receptor A2b were 182 nM and 51.3 nM, respectively.

On to `COCCCn1c(=O)n(C)c(=O)c2[nH]c(-c3ccc(OCC(=O)Nc4ccccc4)cc3)cc21`, for which the inhibition at Adenosine receptor A2a [1] is 29%; in assay [3] it was 27%; in assay [4], 80%. For the same molecule, the Ki at Adenosine receptor A2a [2] is 120 nM; at Adenosine receptor A2b it was 13.8 nM.

For `CCCn1c(=O)c2[nH]c(-c3ccc(OCC(=O)Nc4ccc(CC#N)cc4)cc3)cc2n(CCC)c1=O`, the inhibition came out at 46% at Adenosine receptor A2a [1], 34% in assay [3] and 86% in assay [4]. Besides, the inhibition constant Ki at Adenosine receptor A2a [2] is 39.8 nM; on Adenosine receptor A2b it was 11.2 nM.

For the molecule `CCCn1c(=O)c2[nH]c(-c3ccc(OCC(=O)Nc4ccccc4)cc3)cc2n(C)c1=O`, the results for the inhibition (at Adenosine receptor A2a [1]; in assay [3]; in assay [4]) were 18%, 38% and 91%, respectively. Moreover, the inhibitory constant (Ki) on Adenosine receptor A2a [2] was 170 nM; on Adenosine receptor A2b, 12.3 nM.

For the molecule `Cn1c(=O)c2[nH]c(-c3ccc(OCC(=O)Nc4nncs4)cc3)cc2n(C)c1=O`, the results for the inhibition (at Adenosine receptor A2a [1]; in assay [3]; in assay [4]) were 43%, 36% and 81%, respectively. Besides, the Ki is 16.2 nM at Adenosine receptor A2a [2] and 15.1 nM on Adenosine receptor A2b.

In the case of `CCCn1c(=O)c2[nH]c(-c3ccc(OCC(=O)Nc4ccc(O)cc4)cc3)cc2n(CCC)c1=O`, the inhibition came to 51% at Adenosine receptor A2a [1], 24% in assay [3] and 79% in assay [4]. Further, the Ki on Adenosine receptor A2a [2] was 56.2 nM; on Adenosine receptor A2b, 34.7 nM.

With `CCCn1c(=O)c2[nH]c(-c3ccc(OCC(=O)Nc4ccc(Br)cc4)cc3)c(Cl)c2n(CCC)c1=O`, the figures for the inhibition (at Adenosine receptor A2a [1]; in assay [3]; in assay [4]) were 37%, 15% and 73%, respectively. Also, the Ki on Adenosine receptor A2a [2] is 126 nM; at Adenosine receptor A2b, 24.5 nM.

Consider `CCCn1c(=O)c2[nH]c(-c3ccc(OCC(=O)n4ccc(N)n4)cc3)cc2n(CCC)c1=O`, for which the inhibition was determined as 65% at Adenosine receptor A2a [1], 30% in assay [3] and 83% in assay [4]. Also, the inhibition constant Ki is 26.3 nM on Adenosine receptor A2a [2] and 17 nM at Adenosine receptor A2b.

Consider `CCCn1c(=O)c2[nH]c(-c3ccc(OCC(=O)Nc4ccc(C(=O)NCCc5ccc(OC)cc5)cc4)cc3)cc2n(CCC)c1=O`, for which the results for the inhibition (at Adenosine receptor A2a [1]; in assay [3]; in assay [4]) were 13%, 21% and 74%, respectively. The Ki was 427 nM at Adenosine receptor A2a [2] and 12.3 nM at Adenosine receptor A2b.

On to `COc1cc(OCC(=O)Nc2ccc(F)cc2)ccc1-c1cc2c([nH]1)c(=O)n(C)c(=O)n2C`, for which the figures for the inhibition (at Adenosine receptor A2a [1]; in assay [3]; in assay [4]) were 31%, 23% and 63%, respectively. The results for the Ki on Adenosine receptor A2a [2] and on Adenosine receptor A2b were 95.5 nM and 25.1 nM, respectively.

On to `CCCn1c(=O)c2[nH]c(-c3ccc(OC(C)(C)C(=O)Nc4ccc(F)cc4)cc3)cc2n(CCC)c1=O`, for which the inhibition at Adenosine receptor A2a [1] was found to be 32%; in assay [3] it was 50%; in assay [4], 97%. In addition, the Ki at Adenosine receptor A2a [2] was 17 nM; on Adenosine receptor A2b, 8.91 nM.

As to `CCCn1c(=O)c2[nH]c(-c3ccc(OCC(=O)Nc4ccc(F)cc4)cc3)c(Br)c2n(CCC)c1=O`, the results for the inhibition (on Adenosine receptor A2a [1]; in assay [3]; in assay [4]) were 70%, 30% and 72%, respectively. Also, the values for the Ki at Adenosine receptor A2a [2] and at Adenosine receptor A2b were 20 nM and 12.6 nM, respectively.

On to `CCCn1c(=O)c2[nH]c(-c3ccc(OCC(=O)Nc4ccc(-c5ccccc5)cc4)cc3)cc2n(CCC)c1=O`, for which the inhibition amounted to 36% at Adenosine receptor A2a [1], 40% in assay [3] and 80% in assay [4]. Besides, the figures for the Ki at Adenosine receptor A2a [2] and on Adenosine receptor A2b were 69.2 nM and 16.2 nM, respectively.

Consider `CCCn1c(=O)c2[nH]c(-c3ccc(OCC(=O)Nc4ccccc4)cc3)c(Br)c2n(CCC)c1=O`, for which the results for the inhibition (at Adenosine receptor A2a [1]; in assay [3]; in assay [4]) were 54%, 16% and 73%, respectively. The inhibitory constant (Ki) was 42.7 nM on Adenosine receptor A2a [2] and 24.5 nM on Adenosine receptor A2b.

Turning to `Cn1c(=O)c2[nH]c(-c3cccc(OCC(=O)Nc4ccccc4)c3)cc2n(C)c1=O`, the inhibition at Adenosine receptor A2a [1] is 32%; in assay [3], 10%; in assay [4], 35%. Further, the figures for the Ki at Adenosine receptor A2a [2] and at Adenosine receptor A2b were 204 nM and 166 nM, respectively.

Regarding `Cn1c(=O)c2[nH]c(-c3cccc(OCC(=O)Nc4ccc(Br)cc4)c3)cc2n(C)c1=O`, the inhibition at Adenosine receptor A2a [1] is 45%; in assay [3], 15%; in assay [4], 73%. The Ki at Adenosine receptor A2a [2] was 67.6 nM; at Adenosine receptor A2b, 44.7 nM.

For the molecule `CCCn1c(=O)c2[nH]c(-c3ccc(OCC(=O)Nc4ccc([N+](C)(C)C)cc4)cc3)cc2n(CCC)c1=O`, the figures for the inhibition (on Adenosine receptor A2a [1]; in assay [3]; in assay [4]) were 8%, 4% and 52%, respectively. The Ki at Adenosine receptor A2a [2] was 708 nM; on Adenosine receptor A2b it was 91.2 nM.

In the case of `CCCn1c(=O)c2[nH]c(-c3ccc(OCC(=O)NCc4ccccc4)cc3)c(Cl)c2n(CCC)c1=O`, the inhibition on Adenosine receptor A2a [1] amounted to 43%; in assay [3], 10%; in assay [4], 47%. Moreover, the Ki is 60.3 nM at Adenosine receptor A2a [2] and 83.2 nM on Adenosine receptor A2b.

For `CCCn1c(=O)c2[nH]c(-c3ccc(OCC(=O)Nc4ccc(OC(F)(F)F)cc4)cc3)cc2n(CCC)c1=O`, the inhibition on Adenosine receptor A2a [1] stood at 31%; in assay [3] it was 53%; in assay [4], 91%. Moreover, the Ki on Adenosine receptor A2a [2] was 107 nM; at Adenosine receptor A2b, 6.92 nM.

Consider `Cn1c(=O)c2[nH]c(-c3ccc(OCC(=O)NCc4ccc(F)cc4)cc3)cc2n(C)c1=O`, for which the inhibition turned out to be 56% at Adenosine receptor A2a [1], 36% in assay [3] and 95% in assay [4]. Moreover, the results for the Ki on Adenosine receptor A2a [2] and on Adenosine receptor A2b were 43.7 nM and 17 nM, respectively.

On to `CCCn1c(=O)c2[nH]c(-c3ccc(OCC(=O)Nc4ccc(F)cc4)cc3)cc2n(C)c1=O`, for which the results for the inhibition (on Adenosine receptor A2a [1]; in assay [3]; in assay [4]) were 47%, 57% and 94%, respectively. Further, the inhibition constant (Ki) is 66.1 nM at Adenosine receptor A2a [2] and 5.62 nM at Adenosine receptor A2b.

As to `CCCn1c(=O)c2[nH]c(-c3ccc(OCC(=O)Nc4cccc(F)c4)cc3)c(Cl)c2n(CCC)c1=O`, the inhibition at Adenosine receptor A2a [1] was 20%; in assay [3] it was 6%; in assay [4], 46%. For the same molecule, the Ki at Adenosine receptor A2a [2] was 245 nM; on Adenosine receptor A2b, 60.3 nM.

For `CCCn1c(=O)c2[nH]c(-c3ccc(OCC(=O)Nc4ccc(C(=O)OCC)cc4)cc3)cc2n(C)c1=O`, the values for the inhibition (on Adenosine receptor A2a [1]; in assay [3]; in assay [4]) were 9%, 12% and 88%, respectively. The Ki was 2630 nM on Adenosine receptor A2a [2] and 11.7 nM at Adenosine receptor A2b.

Consider `CCCn1c(=O)c2[nH]c(-c3ccc(OCC(=O)Nc4ccc(I)cc4)cc3)cc2n(CCC)c1=O`, for which the inhibition amounted to 57% at Adenosine receptor A2a [1], 30% in assay [3] and 80% in assay [4]. The Ki was 158 nM at Adenosine receptor A2a [2] and 19.5 nM on Adenosine receptor A2b.

`CCCn1c(=O)c2[nH]c(-c3ccc(OC(CC)C(=O)Nc4ccc(Br)cc4)cc3)cc2n(CCC)c1=O` (stereo not given): the inhibition on Adenosine receptor A2a [1] came out at 82%; in assay [3], 55%; in assay [4] it was 94%. For the same molecule, the Ki on Adenosine receptor A2a [2] was 31.6 nM; on Adenosine receptor A2b it was 6.03 nM.

The record behind these values is ChEMBL document CHEMBL1148617, “Design, synthesis, and structure-activity relationships of 1-,3-,8-, and 9-substituted-9-deazaxanthines at the human A2B adenosine receptor” (J Med Chem, 2006).
